Assay [1] has as its system Ba/F3 cells transfected with FLT3 ITD-D835Y. Put plainly: Cytotoxicity in isogenic transfected Ba/F3 cells (Table 4). The settings on record: Mus musculus, BaF3, read-out: IC50 in Transfected Ba/F3 cells, FLT3 ITD-D835Y. It is filed as cell-based, Murin.
For a further assay, the target named is T1, FLT3(D835Y) (Homo sapiens, UniProt P36888, D835Y).
T1 construct: made in house; host or cells: E. coli BL21-derived host (T7 phage) or HEK-293
The assay is described as follows: Inhibition of FLT3 mutants, kinase IC50. It is filed as biochemical. The protocol: (§1) RBC HotSpot Kinase Assay Protocol:
(§2) Reagents used: Base Reaction buffer; 20 mM Hepes (pH 7.5), 10 mM MgCl2, 1 mM EGTA, 0.02% Brij35, 0.02 mg/ml BSA, 0.1 mM Na3VO4, 2 mM DTT, 1% DMSO. Required cofactors are added individually to each kinase reaction.
(§3) Compound 7 was dissolved in 100% DMSO to a specified concentration. The serial dilution was conducted by epMotion 5070 in DMSO. The substrate was freshly prepared in Reaction Buffer and any required cofactors to the substrate solution were added. The kinase was added to the solution and gently mixed. Compound 7 was added in 100% DMSO into the kinase reaction mixture by Acoustic technology (Echo550; nanoliter range), and incubated for 20 min at room temperature. ^33P-ATP (Specific activity 10 μCi/μl) was added into the reaction mixture to initiate the reaction, which was incubated for 2 hours, whereupon kinase activity was detected by the filter-binding method.

Assay [2] relates to Ba/F3 cells transfected with FLT3 ITD. Put plainly: Cytotoxicity in isogenic transfected Ba/F3 cells (Table 4). The assay is classed as cell-based, Murin. The settings on record: Mus musculus, BaF3, read-out: IC50 in Transfected Ba/F3 cells, FLT3 ITD.
The next assay has as its target T2, BTK (Homo sapiens, UniProt Q06187).
T2 construct: RBC (only as the name of the general kinase protocol)
Put plainly: Inhibition of BTK, kinase IC50. It is filed as biochemical. On the procedure:
as §1, §2, §3

The next assay concerns the target T3, BTK (E41K) (Homo sapiens, UniProt Q06187, E41K).
T3 construct: RBC (only as the name of the general kinase protocol)
The assay is described as follows: Inhibition of BTK, kinase IC50. The assay is classed as biochemical. On the procedure:
as §1, §2, §3

The target in another assay is T4, BTK (P190K) (Homo sapiens, UniProt Q06187, P190K).
T4 construct: RBC (only as the name of the general kinase protocol)
T4 sequence (Q06187 whole entry P190K): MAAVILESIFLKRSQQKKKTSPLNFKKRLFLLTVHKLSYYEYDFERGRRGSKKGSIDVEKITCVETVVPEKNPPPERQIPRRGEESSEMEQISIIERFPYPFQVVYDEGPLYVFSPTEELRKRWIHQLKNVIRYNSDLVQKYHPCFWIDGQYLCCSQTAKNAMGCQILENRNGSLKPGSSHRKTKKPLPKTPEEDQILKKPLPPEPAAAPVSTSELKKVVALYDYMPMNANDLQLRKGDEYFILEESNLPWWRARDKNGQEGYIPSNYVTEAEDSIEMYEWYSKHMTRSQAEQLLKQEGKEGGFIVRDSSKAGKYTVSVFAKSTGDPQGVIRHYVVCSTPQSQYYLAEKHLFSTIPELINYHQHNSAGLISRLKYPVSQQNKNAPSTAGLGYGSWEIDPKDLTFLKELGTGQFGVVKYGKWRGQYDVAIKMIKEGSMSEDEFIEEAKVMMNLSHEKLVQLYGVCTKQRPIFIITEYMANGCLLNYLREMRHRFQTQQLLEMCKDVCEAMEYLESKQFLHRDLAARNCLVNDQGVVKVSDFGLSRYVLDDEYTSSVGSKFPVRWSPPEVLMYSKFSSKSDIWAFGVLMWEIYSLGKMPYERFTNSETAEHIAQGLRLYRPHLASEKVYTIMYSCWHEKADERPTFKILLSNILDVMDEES
The assay is described as follows: Inhibition of BTK, kinase IC50. The assay is classed as biochemical. The protocol: as §1, §2, §3

Another assay has as its system THP-1 (FLT3-WT, t(9:11)). The assay is described as follows: Antiproliferative activity (Table 6). It is filed as cell-based. The note with it: Homo sapiens, THP-1, 72 h.
Assay [3] relates to MOLM13 (FLT3-ITD, t(9:11)). Put plainly: Antiproliferative activity (Table 6). The assay is classed as cell-based. The note with it: Homo sapiens, MOLM-13, 72 h.
For assay [4], the system named is Aurora kinase in Mino, Ramos and SU-DHL6. The assay is described as follows: Aurora kinase inhibition in B-cell lines (Western blot). The note with it: FIGS. 13A-13C. The assay is classed as cell-based. On the procedure: Inhibition of Aurora kinase activity was measured by western blotting for phosphorylation levels of Aurora kinases or and down-stream targets and by cell cycle and DNA content analysis. Whole cell extracts from Compound 7 treated cells were resolved by gel electrophoresis and transferred to nitrocellulose membranes and inhibition of Aurora kinase A/B and H3S10 phosphorylation was detected with specific antibodies. DNA synthesis and cell cycle phase was assessed by staining compound 7 of vehicle treated cells with 5-ethynyl-2′deoxyuridine (Edu) Alexa Fluor 488 and PI.
A general note: In western blotting, separated proteins are transferred to a membrane and probed.

The test system of another assay is Ba/F3-D835G (FLT3-D835G). The assay is described as follows: Antiproliferative activity (Table 6). It is filed as cell-based, Murin. The note with it: 72 h.
The test system of assay [5] is Mino, RAMOS, GRANTA-519 and SU-DHL-6 cells. Put plainly: Cell cycle progression in B-cell malignant cell lines (EdU/PI, FACS). The settings on record: FIGS. 27, 28. The assay is classed as cell-based. On the procedure:
The data presented in FIGS. 27A-27D and FIGS. 28A-28D were generated using well-known protocols for measuring cell cycle progression (e.g., EdU and/or PI staining followed by FACS analysis using the BD Accuri C6 flow), and is readily apparent to a skilled artisan.
Cell-cycle analysis: Cells were treated with vehicle, DMSO or Compound 7 and were stained with PI and EdU, and then analyzed by flow cytometry to determine the phases of cell cycle.

Another assay concerns MV4-11. Put plainly: Cytotoxicity in high serum conditions (MTS). The assay is classed as cell-based, human. The settings on record: MV4-11, 72 hours, 10% vs 30%, 50%, 80% FBS. The protocol:
Compound 7 was tested in a dose-dependent manner at different serum concentrations. […] In this experiment, MV4-11 (n=6) and EOL-1(n=3˜6) cells were treated with or without Compound 7 for 72 hours in medium containing normal (10%) or high serum (30%, 50%, 80%) FBS with an MTS assay serving as an end point.

A further assay deals with BTK WT (Homo sapiens, UniProt Q06187). The assay is described as follows: Comparative potency against BTK (Table 8). The assay is classed as biochemical. The settings on record: Table 8, wild-type BTK.
Chain of BTK WT (Q06187 whole entry): as the sequence (Q06187 whole entry P190K) above, with K190P counted along it
Assay [6] has as its system Ba/F3 cells transfected with FLT3 ITD-F691L. The assay is described as follows: Cytotoxicity in isogenic transfected Ba/F3 cells (Table 4). It is filed as cell-based, Murin. The settings on record: Mus musculus, BaF3, read-out: IC50 in Transfected Ba/F3 cells, FLT3 ITD-F691L.
For another assay, the target named is EGFR (Homo sapiens, UniProt P00533). Put plainly: Key off-targets (Table 8). The assay is classed as biochemical.
Chain of EGFR (P00533 25-1210): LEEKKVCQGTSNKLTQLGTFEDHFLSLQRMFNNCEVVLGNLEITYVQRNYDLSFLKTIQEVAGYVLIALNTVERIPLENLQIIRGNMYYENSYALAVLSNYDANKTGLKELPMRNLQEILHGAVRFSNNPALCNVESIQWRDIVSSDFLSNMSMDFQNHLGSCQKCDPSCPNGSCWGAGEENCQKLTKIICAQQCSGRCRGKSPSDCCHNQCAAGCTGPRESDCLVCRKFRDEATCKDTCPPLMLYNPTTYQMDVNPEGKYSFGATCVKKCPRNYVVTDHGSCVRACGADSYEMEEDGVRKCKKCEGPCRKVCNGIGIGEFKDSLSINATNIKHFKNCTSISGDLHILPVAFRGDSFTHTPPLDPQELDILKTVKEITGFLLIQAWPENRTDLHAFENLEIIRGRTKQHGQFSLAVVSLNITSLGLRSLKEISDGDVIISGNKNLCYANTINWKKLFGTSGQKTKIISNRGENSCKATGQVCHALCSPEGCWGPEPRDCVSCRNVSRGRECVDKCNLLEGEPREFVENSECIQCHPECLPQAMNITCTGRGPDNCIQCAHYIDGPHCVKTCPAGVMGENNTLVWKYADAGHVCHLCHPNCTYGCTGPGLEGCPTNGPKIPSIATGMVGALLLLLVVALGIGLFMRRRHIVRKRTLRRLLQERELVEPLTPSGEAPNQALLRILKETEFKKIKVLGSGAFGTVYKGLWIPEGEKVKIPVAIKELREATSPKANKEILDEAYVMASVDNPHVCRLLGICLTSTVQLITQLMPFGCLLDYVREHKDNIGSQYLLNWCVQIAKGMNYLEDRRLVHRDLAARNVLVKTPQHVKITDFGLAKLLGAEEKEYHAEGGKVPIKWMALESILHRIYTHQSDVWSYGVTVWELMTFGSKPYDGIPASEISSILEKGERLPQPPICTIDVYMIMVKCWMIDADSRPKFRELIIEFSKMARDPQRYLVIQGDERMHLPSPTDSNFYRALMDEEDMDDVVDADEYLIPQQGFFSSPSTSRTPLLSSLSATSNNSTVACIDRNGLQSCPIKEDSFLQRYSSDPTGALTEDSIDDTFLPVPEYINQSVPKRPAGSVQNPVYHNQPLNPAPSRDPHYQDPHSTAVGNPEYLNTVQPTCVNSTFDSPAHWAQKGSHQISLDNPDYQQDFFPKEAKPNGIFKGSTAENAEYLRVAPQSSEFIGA
The target of another assay is T5, FLT3(D835H) (Homo sapiens, UniProt P36888, D835H).
T5 construct: made in house; host or cells: E. coli BL21-derived host (T7 phage) or HEK-293
The assay is described as follows: Binding constant (Kd), kinase-tagged phage / affinity bead competition binding with qPCR readout. For orientation: Quantitative PCR measures a nucleic acid by following its amplification.

Another assay has as its system Ba/F3-D835Y (FLT3-D835Y). Put plainly: Antiproliferative activity (Table 6). The assay is classed as cell-based, Murin. The settings on record: 72 h.
The next assay addresses BTK C481S (Homo sapiens, UniProt Q06187, C481S). The assay is described as follows: Comparative potency against BTK (Table 8). It is filed as biochemical. The settings on record: x printed without key.
The subject of another assay is MV4-11 cells. The assay is described as follows: Apoptosis of MV4-11 cells (Annexin V, Western blot). It is filed as cell-based, human. The protocol: The data presented in FIGS. 7A-7C, FIGS. 8A-8B, and FIGS. 17A-17J were generated using well-known protocols for measuring apoptosis, which are readily apparent to a skilled artisan. Without being bound by any theory, an overview of the procedure can be found in, for example, Rieger et al., Modified Annexin V/Propidium Iodide Apoptosis Assay For Accurate Assessment of Cell Death, J VI. Exp. 2011; (50): 2597.
IC50s and EC50s: Certain cell viability studies described herein were assessed using the Tryptan blue dye exclusion method or the MTS assay. Certain apoptosis studies and related studies described herein were determined via FACS by annexin V positivity.

Molecules are shown by their SMILES. Bounds are passed on as bounds.

Chain of BTK C481S (Q06187 whole entry C481S): as the sequence (Q06187 whole entry P190K) above, with K190P, C481S counted along it
T2 sequence (Q06187 whole entry): as the sequence (Q06187 whole entry P190K) above, with K190P counted along it
T3 sequence (Q06187 whole entry E41K): as the sequence (Q06187 whole entry P190K) above, with E41K, K190P counted along it

A word on the Kd: it is the concentration at which binding is half-saturated. For the compound `Cc1cnc(-c2ccc(-c3ccc(NC(=O)Nc4c(F)cc(F)cc4F)cc3F)c3c2C(=O)NC3)[nH]1` [Compound 7, 1-{3-fluoro-4-[7-(5-methyl-1H-imidazol-2-yl)-1-oxo-2,3-dihydro-1H-isoindol-4-yl]-phenyl}-3-(2,4,6-trifluorophenyl)urea], the IC50 in [1] came to 19.3 nM; against FLT3(D835Y), 166 nM; in assay [2], 0.5 nM; at BTK it was 8.42 nM; on BTK (E41K), 14.5 nM; against BTK (P190K) it was 6.59 nM. Further, the IC50 in the assay with THP-1 (FLT3-WT, t(9:11)) was 3.88 nM; in [3], 0.82 nM; in the assay with Ba/F3-D835G (FLT3-D835G), 0.12 nM; against BTK WT, 5 nM; in assay [6], 10 nM; against EGFR, above 1000 nM. The IC50 was 8.26 nM in the assay with Ba/F3-D835Y (FLT3-D835Y) and 2.5 nM against BTK C481S. Besides, the “Aurora kinase inhibition (phosphorylation patterns)” value in assay [4] is reported as “effective as an Aurora Kinase inhibitor”. For the same compound, the Cell cycle progression entry in assay [5] is recorded as “interferes with cell cycle progression”. For the same compound, the “Activity at high serum concentration” value with MV4-11 is on record as “retains high activity at high serum concentration”. Also, the “Inhibition of EGFR (in words)” value at EGFR was “no inhibition”. The compound further gave a dissociation constant Kd at FLT3(D835H) of 2.2 nM. Further, in the assay on MV4-11 cells (MV4-11 cells, 1, 3, 6, 24 hour), the “Time dependency of apoptosis” value is on record as “induces apoptosis in a time dependent manner”. Also, the Apoptosis induction entry in the assay with MV4-11 cells (MV411 cells, 24 hours, various concentrations) was “induces apoptosis”.

These data come from patent publication US20180344702A1, “METHODS FOR TREATING PATIENTS WITH HEMATOLOGIC MALIGNANCIES” (Aptose Biosciences, Inc., priority 2017, published 2018).
